In patent publication US10913738B2 (BRISTOL-MYERS SQUIBB COMPANY, priority 2017, dated 2021):
Where two headings read alike, the source gives them in different places.

Columns and labels:
[1] = tested on: MLKL phosphorylation in HT29-L23 human colorectal adenocarcinoma cells; experiment: MLKL Phosphorylation High-Content Assay; format: cell-based; conditions: Homo sapiens
Method in brief: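 IC50 and Ymax obtained by 4-parameter logistic fitting of MLKL phosphorylation, measured as mean circ-ring average intensity ratio from high-content images. Staining used an anti-phospho-S358 MLKL antibody overnight at 4° C., following six-hour cell incubation at 37° C.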

[2] = target: T1, His-GST-TVMV-hRIPK1(1-324) (Homo sapiens, UniProt Q13546); experiment: RIPK1 HTRF Binding Assay
T1 construct: The coding region of human RIPK1(1-324) flanked by NdeI site at 5′ end; made in house; host or cells: Spodoptera frugiperda (Sf9) insect cells, baculovirus
T1 sequence (Q13546 1-324): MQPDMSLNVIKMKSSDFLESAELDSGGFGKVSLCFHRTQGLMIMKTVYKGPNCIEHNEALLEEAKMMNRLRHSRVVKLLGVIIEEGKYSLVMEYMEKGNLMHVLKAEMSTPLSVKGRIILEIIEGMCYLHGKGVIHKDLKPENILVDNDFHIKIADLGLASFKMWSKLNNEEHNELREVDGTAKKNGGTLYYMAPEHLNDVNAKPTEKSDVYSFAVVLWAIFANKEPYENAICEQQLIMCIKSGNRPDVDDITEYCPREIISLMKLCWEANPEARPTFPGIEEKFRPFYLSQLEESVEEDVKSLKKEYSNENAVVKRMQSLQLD

[3] = x marks IC50 class 20-200 nM, read-out: pMLKL cell activity 20-200 nM
[4] = x marks IC50 class <20 nM, read-out: RIPK1 HTRF binding <20 nM
[5] = x marks IC50 class 20-200 nM, read-out: RIPK1 HTRF binding 20-200 nM
[6] = x marks IC50 class >200 nM, read-out: pMLKL cell activity >200 nM

Structure (SMILES) | IC50 [1, 3] | IC50 [2, 4] | IC50 [2, 5] | IC50 [1, 6]
Cc1ccc(-c2ccn3nc(N)nc3c2)nc1C(=O)N[C@H](C)c1cc(OC(F)(F)F)ccc1F [Example 403, (R)-6-(2-amino-[1,2,4]triazolo[1,5-a]pyridin-7-yl)-N-(1-(2-fluoro-5-(trifluoromethoxy)phenyl)ethyl)-3-methylpicolinamide] | 20 to 200 nM | < 20 nM |  | 
Cc1ncc(C(=O)NCc2cc(F)ccc2OCC2CCCC2)cc1-c1ccn2nc(N)nc2c1 [Example 262, 5-{2-amino-[1,2,4]triazolo[1,5-a]pyridin-7-yl}-N-{[2-(cyclopentylmethoxy)-5-fluorophenyl]methyl}-6-methylpyridine-3-carboxamide] | 20 to 200 nM | < 20 nM |  | 
[2H]C([2H])(NC(=O)c1cc(-c2ccn3nc(N)nc3c2)c(C)nc1OC)c1cccc(C(F)(F)F)c1 [Example 335, 5-(2-amino-[1,2,4]triazolo[1,5-a]pyridin-7-yl)-2-methoxy-6-methyl-N-((3-(trifluoromethyl)phenyl)methyl-d2)nicotinamide] | 20 to 200 nM |  | 20 to 200 nM | 
COc1ccc(F)c(CNC(=O)c2cc(-c3ccn4nc(N)nc4c3)c(C)nc2OC)c1 [Example 337, 5-(2-amino-[1,2,4]triazolo[1,5-a]pyridin-7-yl)-N-(2-fluoro-5-methoxybenzyl)-2-methoxy-6-methylnicotinamide] |  |  | 20 to 200 nM | > 200 nM
Cc1cnc(-c2ccn3nc(N)nc3c2)cc1C(=O)NCc1cc(C(F)(F)F)ccc1F [Example 398, 2-(2-amino-[1,2,4]triazolo[1,5-a]pyridin-7-yl)-N-(2-fluoro-5-(trifluoromethyl)benzyl)-5-methylisonicotinamide] | 20 to 200 nM |  | 20 to 200 nM | 
COc1nc(C)c(-c2ccn3nc(N)nc3c2)cc1C(=O)NCc1cc(OC(F)(F)F)ccc1F [Example 201, 5-{2-amino-[1,2,4]triazolo[1,5-a]pyridin-7-yl}-N-{[2-fluoro-5-(trifluoromethoxy)phenyl]methyl}-2-methoxy-6-methylpyridine-3-carboxamide] | 20 to 200 nM | < 20 nM |  | 
Cc1nc(C)c(-c2ccn3nc(N)nc3c2)cc1C(=O)NCC(O)Cc1ccccc1 (stereo not drawn) [Example 173] |  |  | 20 to 200 nM | > 200 nM
COc1ncc(-c2ccn3nc(N)nc3c2)cc1C(=O)NCc1ccccc1OC(F)(F)C(F)F [Example 150, 5-{2-amino-[1,2,4]triazolo[1,5-a]pyridin-7-yl}-2-methoxy-N-{[2-(1,1,2,2-tetrafluoroethoxy)phenyl]methyl}pyridine-3-carboxamide] | 20 to 200 nM | < 20 nM |  | 
COc1ncc(-c2ccn3nc(N)nc3c2)cc1C(=O)NCc1ccccc1O[C@@H]1C[C@H]2CC[C@@H]1C2 [Example 30, 5-{2-Amino-[1,2,4]triazolo[1,5-a]pyridin-7-yl}-N-({2-[(1R,2R,4S)-bicyclo[2.2.1]heptan-2-yloxy]phenyl}methyl)-2-methoxypyridine-3-carboxamide] | 20 to 200 nM |  | 20 to 200 nM | 
COc1nc(C)c(-c2ccn3nc(N)nc3c2)cc1C(=O)NC(C)c1cccc(OC(F)(F)F)c1 (stereo not drawn) [Example 223, 5-{2-amino-[1,2,4]triazolo[1,5-a]pyridin-7-yl}-2-methoxy-6-methyl-N-{1-[3-(trifluoromethoxy)phenyl]ethyl}pyridine-3-carboxamide] | 20 to 200 nM | < 20 nM |  | 
Cc1ncc(-c2ccn3nc(N)nc3c2)cc1C(=O)NCc1ccc(F)cc1OCC1CCCC1 [Example 18, 5-{2-Amino-[1,2,4]triazolo[1,5-a]pyridin-7-yl}-N-{[2-(cyclopentylmethoxy)-4-fluorophenyl]methyl}-2-methylpyridine-3-carboxamide] |  |  | 20 to 200 nM | > 200 nM
Cc1ncc(C(=O)NCc2ccccc2OCC2CCCC2)cc1-c1ccn2nc(N)nc2c1 [Example 263, 5-{2-amino-[1,2,4]triazolo[1,5-a]pyridin-7-yl}-N-{[2-(cyclopentylmethoxy)phenyl]methyl}-6-methylpyridine-3-carboxamide] | 20 to 200 nM | < 20 nM |  | 
